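How tested: cells in 96-well plates exposed to compound for 48 hours at five concentrations. Abbreviation: GI50, concentration required for 50% inhibition of growth.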 Calls of active or inactive are those of the source. No stated cut-off is given here; in the data, active = GI50 up to about 1.1 µM and inactive = higher.

What all share (assay): NCI tumour cell line growth inhibition, 48 h
Experiment [1] relates to K562.
Experiment [2] deals with OVCAR-4.
Experiment [3] relates to ACHN.
Experiment [4] concerns LXFL 529.
Experiment [5] deals with Malme-3M.
Experiment [6] concerns UO-31.
Experiment [7] concerns LOX IMVI.
In experiment [8] the test system is RXF 393.
In experiment [9] the test system is SK-MEL-28.
Experiment [10] concerns TK-10.
Experiment [11] relates to RPMI-8226.
The test system of experiment [12] is UACC-257.
The subject of experiment [13] is U-251.
In experiment [14] the test system is HCT-116.
The test system of experiment [15] is SF-295.
The subject of experiment [16] is SNB-75.
Experiment [17] relates to MDA-MB-435.
Experiment [18] has as its system NCI-H522.
Experiment [19] deals with BT-549.
Experiment [20] relates to T47D.

Turning to `CC[C@H](C)C(=O)O[C@H]1C[C@@H](C)C=C2C=C[C@H](C)[C@H](CC[C@@H]3C[C@@H](O)CC(=O)O3)[C@H]21` [LOVASTATIN], the GI50 in experiment [1] is 19.5 µM (inactive); in experiment [2] it was > 30 µM (inactive); in experiment [3], 1.76 µM (inactive); in [4], 7.76 µM (inactive); in [5] it was > 30 µM (inactive); in [6], 6.27 µM (inactive). Also, the GI50 in experiment [7] was 1.58 µM (inactive); in experiment [8], 2.52 µM (inactive); in [9], 25 µM (inactive); in experiment [10] it was 16.2 µM (inactive); in experiment [11] it was > 30 µM (inactive); in experiment [12], 20 µM (inactive).
Regarding `c1ccc(-c2nnc3nn4c(-c5ccccc5)cnnc4c3c2-c2ccccc2)cc1`, the GI50 in experiment [1] was 75 µM (inactive); in [13] it was 32.6 µM (inactive); in [14], 63.4 µM (inactive); in [15] it was 74 µM (inactive); in experiment [2] it was 12.9 µM (inactive); in [3], 55.6 µM (inactive). Also, the GI50 in [4] is 42.7 µM (inactive); in [16], 34.4 µM (inactive); in experiment [5] it was 42.5 µM (inactive); in [6], 23.2 µM (inactive); in experiment [7] it was > 100 µM (inactive); in experiment [8], 14.7 µM (inactive). In addition, the GI50 was 64 µM (inactive) in [9], 19.2 µM (inactive) in [10], > 100 µM (inactive) in [11] and 96.8 µM (inactive) in experiment [12].
`CC1(C)OC([C@H](O)CO)C([C@H]2NCCS2)O1` (stereo partly specified): the GI50 in experiment [17], in experiment [1], in experiment [13], in experiment [14], in experiment [15] and in [2] was > 100 µM (inactive) in each case. The GI50 in experiment [3], in experiment [16], in experiment [5], in experiment [18], in experiment [6] and in [7] was > 100 µM (inactive) each time. In addition, the GI50 in experiment [19], in [8], in experiment [9], in experiment [10], in experiment [11] and in [20] was > 100 µM (inactive) in each case. Moreover, the GI50 in experiment [12] is > 100 µM (inactive).
For `CC(=O)OCC12C(OC(C)=O)C[C@@H](C)C3(CC(c4ccoc4)OC3=O)C1CCC(O)C21CO1` (stereo partly specified), the GI50 in experiment [17], in experiment [1], in [13], in [14], in [15] and in experiment [2] was > 100 µM (inactive) throughout. The GI50 in experiment [3], in experiment [16], in experiment [5], in [18], in experiment [6] and in experiment [7] was > 100 µM (inactive) throughout. Further, the GI50 in experiment [19] is > 100 µM (inactive); in experiment [8], > 100 µM (inactive); in experiment [9], > 100 µM (inactive); in [10] it was > 100 µM (inactive); in [11], > 100 µM (inactive); in [20] it was 2.82 µM (inactive). The GI50 in [12] is > 100 µM (inactive).
As to `COC(=O)C1=C(c2ccc(OC)c(OC)c2)OC(c2ccc(OC)c(OC)c2)C1` (stereo unspecified), the GI50 in experiment [1] was 32.1 µM (inactive); in [13], 36.1 µM (inactive); in experiment [14] it was 27.3 µM (inactive); in [15], 27.6 µM (inactive); in experiment [2] it was 27.9 µM (inactive); in [3], 25.4 µM (inactive). Moreover, the GI50 in [4] was 16.2 µM (inactive); in [16] it was 41.4 µM (inactive); in [5] it was 30 µM (inactive); in experiment [6], 28.8 µM (inactive); in [7] it was 19.5 µM (inactive); in experiment [8], 25.6 µM (inactive). The GI50 in experiment [9] is 45.1 µM (inactive); in experiment [10], 43.2 µM (inactive); in [11], 37.6 µM (inactive); in experiment [12] it was 36.3 µM (inactive).
In the case of `O=[N+]([O-])C(=C(Cl)Cl)C(Cl)=C(Cl)Cl`, the GI50 is 0.314 µM (active) in experiment [17]; 0.0118 µM (active) in experiment [1]; 2.81 µM (inactive) in [13]; 0.0929 µM (active) in experiment [14]; 3.06 µM (inactive) in experiment [15]; 0.0847 µM (active) in experiment [2]. For the same compound, the GI50 was 0.635 µM (active) in experiment [3]; 1.39 µM (inactive) in [16]; 0.0454 µM (active) in [5]; < 0.01 µM (active) in experiment [18]; 0.836 µM (active) in [6]; < 0.0117 µM (active) in experiment [7]. The GI50 is 0.124 µM (active) in [19]; 0.0391 µM (active) in [8]; 0.105 µM (active) in experiment [9]; 0.372 µM (active) in [10]; < 0.0176 µM (active) in experiment [11]; 0.037 µM (active) in [20]. In addition, the GI50 in experiment [12] was 0.166 µM (active).
On to `CC(=O)n1nc(-c2[nH]c(C)c(-c3nn(C(C)=O)c(=S)o3)c2C)oc1=S`, for which the GI50 in experiment [17], in experiment [1], in experiment [13], in experiment [14], in experiment [15] and in [2] was > 100 µM (inactive) each time. For the same compound, the GI50 was > 100 µM (inactive) in experiment [3]; > 32.3 µM (inactive) in [16]; 30.1 µM (inactive) in [5]; > 85.7 µM (inactive) in experiment [18]; > 100 µM (inactive) in experiment [6]; 82.8 µM (inactive) in experiment [7]. The GI50 is > 100 µM (inactive) in [19]; > 100 µM (inactive) in experiment [8]; > 100 µM (inactive) in experiment [9]; > 100 µM (inactive) in [10]; > 56.6 µM (inactive) in [11]; > 100 µM (inactive) in experiment [20]. Further, in experiment [12], the GI50 was > 100 µM (inactive).
Take `CC(C)c1ccc(O)c(=O)c(O)c1.CC(C)c1ccc(O)c(=O)cc1.CC(C)c1cccc(=O)c(O)c1.CC(C)c1ccccc(=O)c1O`: the GI50 is 2.1 µM (inactive) in experiment [17]; 0.571 µM (active) in experiment [1]; 0.491 µM (active) in experiment [13]; 0.373 µM (active) in experiment [14]; 1.23 µM (inactive) in [15]; 1.11 µM (active) in experiment [2]. Moreover, the GI50 is 0.47 µM (active) in experiment [3]; 2.02 µM (inactive) in [16]; 1.43 µM (inactive) in experiment [5]; 0.456 µM (active) in experiment [18]; 0.841 µM (active) in [6]; 0.76 µM (active) in experiment [7]. Also, the GI50 in [19] was 4.8 µM (inactive); in experiment [8] it was 0.432 µM (active); in [9] it was 2.05 µM (inactive); in experiment [10] it was 0.459 µM (active); in experiment [11] it was 0.964 µM (active); in experiment [20], 1.88 µM (inactive). Further, in experiment [12], the GI50 is 0.322 µM (active).
Regarding `O=C1Nc2ccccc2/C1=C\c1c(Cl)nc2n1CCS2`, the GI50 in experiment [17] is 12.6 µM (inactive); in experiment [1], 21.3 µM (inactive); in [13] it was 22.1 µM (inactive); in experiment [14] it was 23.6 µM (inactive); in experiment [15] it was 25.2 µM (inactive); in experiment [2], 31.5 µM (inactive). In addition, the GI50 is 38.3 µM (inactive) in [3]; 22.3 µM (inactive) in experiment [16]; 23.7 µM (inactive) in experiment [5]; 16.2 µM (inactive) in experiment [18]; 27 µM (inactive) in experiment [6]; 31.8 µM (inactive) in experiment [7]. The GI50 in experiment [19] was 19.5 µM (inactive); in [8] it was 22.6 µM (inactive); in experiment [9] it was 32.4 µM (inactive); in experiment [10], 19.7 µM (inactive); in experiment [11], 27.7 µM (inactive); in experiment [20], 19.6 µM (inactive). For the same compound, the GI50 in [12] is 13.7 µM (inactive).
On to `O=C1CCCC1C(=O)Nc1ccc2ccccc2c1` (stereo unspecified), for which the GI50 in [17] was > 100 µM (inactive); in experiment [1], 53.5 µM (inactive); in experiment [13], > 100 µM (inactive); in experiment [14] it was > 100 µM (inactive); in [15], > 100 µM (inactive); in experiment [2], > 100 µM (inactive). The GI50 in experiment [3] was > 100 µM (inactive); in experiment [16] it was 29.4 µM (inactive); in experiment [5], > 100 µM (inactive); in experiment [18], 49 µM (inactive); in experiment [6], > 100 µM (inactive); in experiment [7], > 100 µM (inactive). The GI50 is > 100 µM (inactive) in [19]; 44.5 µM (inactive) in [8]; > 100 µM (inactive) in experiment [9]; > 100 µM (inactive) in experiment [10]; 59.2 µM (inactive) in experiment [11]; 62.5 µM (inactive) in experiment [20]. Moreover, the GI50 in [12] was > 100 µM (inactive).
Consider `O=C(/C=C/c1ccco1)c1cccc(C(=O)/C=C/c2ccco2)n1`, for which the GI50 was 48.5 µM (inactive) in experiment [17]; 2.91 µM (inactive) in experiment [1]; 5.22 µM (inactive) in experiment [13]; 2.78 µM (inactive) in experiment [14]; 40.1 µM (inactive) in [15]; > 73.5 µM (inactive) in experiment [2]. Besides, the GI50 in experiment [3] is 21.9 µM (inactive); in experiment [16] it was 45.5 µM (inactive); in [5], 25.7 µM (inactive); in experiment [18], 3.9 µM (inactive); in experiment [6] it was 6.43 µM (inactive); in experiment [7], 1.78 µM (inactive). Also, the GI50 in experiment [19] is 13 µM (inactive); in experiment [8] it was 25.5 µM (inactive); in experiment [9], 15.4 µM (inactive); in experiment [10], 41.2 µM (inactive); in experiment [11], 1.87 µM (inactive); in [20], 6.17 µM (inactive). In experiment [12], the GI50 is 60.7 µM (inactive).
